Measurements: ChEMBL document CHEMBL1201861, “Genomics of Drug Sensitity in Cancer screening data, Wellcome Trust Sanger Institute”
Where “and” joins values, the source holds several entries; their conditions need not be identical. Equal entries are not always repeated.

How the values were obtained:
Assay in all cases: cells
NOMO-1 = format: functional, cell-based; details: Homo sapiens;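 note: growth inhibition of human NOMO-1 cells measured by a cell viability assay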
Description: SANGER: Inhibition of human NOMO-1 cell growth in a cell viability assay.

COLO-824 = format: functional, cell-based, Homo sapiens; details: colo-824
Description: SANGER: Inhibition of human COLO-824 cell growth in a cell viability assay.

NCI-H1993 = format: functional, cell-based, Homo sapiens; details: nci-h1993;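 note: growth inhibition of the cancer cell line, assessed with a cell viability assay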
Description: SANGER: Inhibition of human NCI-H1993 cell growth in a cell viability assay.

ES5 = format: functional, cell-based, Homo sapiens; details: es5;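 note: growth inhibition of human ES5 cells, read out by a cell viability assay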
Description: SANGER: Inhibition of human ES5 cell growth in a cell viability assay.

MHH-PREB-1 = format: functional, cell-based; details: Homo sapiens;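 note: cell viability assay measuring inhibition of proliferation of human MHH-PREB-1 cells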
Description: SANGER: Inhibition of human MHH-PREB-1 cell growth in a cell viability assay.

DJM-1 = format: functional, cell-based, Homo sapiens; details: djm-1;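 note: growth inhibition of human DJM-1 cells, read out by a cell viability assay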
Description: SANGER: Inhibition of human DJM-1 cell growth in a cell viability assay.

NY = format: functional, cell-based, Homo sapiens
Description: SANGER: Inhibition of human NY cell growth in a cell viability assay.

CAL-72 = format: functional, cell-based, Homo sapiens;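 note: cell viability assay measuring inhibition of proliferation in the CAL-72 cell line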
Description: SANGER: Inhibition of human CAL-72 cell growth in a cell viability assay.

RPMI-2650 = format: functional, cell-based, Homo sapiens
Description: SANGER: Inhibition of human RPMI-2650 cell growth in a cell viability assay.

KYSE-450 = format: functional, cell-based; details: Homo sapiens;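 note: cell growth inhibition measured by a viability assay in human KYSE-450 cells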
Description: SANGER: Inhibition of human KYSE-450 cell growth in a cell viability assay.

RVH-421 = format: functional, cell-based, Homo sapiens; details: rvh-421
Description: SANGER: Inhibition of human RVH-421 cell growth in a cell viability assay.

TK-10 = format: functional, cell-based, Homo sapiens; details: tk-10;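 note: growth inhibition of TK-10 cells, read out in a cell viability assay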
Description: SANGER: Inhibition of human TK10 cell growth in a cell viability assay.

LNCaP-Clone-FGC = format: functional, cell-based, Homo sapiens
Description: SANGER: Inhibition of human LNCaP-Clone-FGC cell growth in a cell viability assay.

UACC-257 = format: functional, cell-based, Homo sapiens
Description: SANGER: Inhibition of human UACC-257 cell growth in a cell viability assay.

LS-411N = format: functional, cell-based, Homo sapiens
HDLM-2 = format: functional, cell-based; details: Homo sapiens;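 note: cell viability assay measuring suppression of HDLM-2 proliferation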
Description: SANGER: Inhibition of human HDLM-2 cell growth in a cell viability assay.

NCI-H1770 = format: functional, cell-based; details: Homo sapiens;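 note: growth inhibition of NCI-H1770 cells determined with a viability readout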
Description: SANGER: Inhibition of human NCI-H1770 cell growth in a cell viability assay.

NCI-H1648 = format: functional, cell-based, Homo sapiens;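 note: cell viability assay measuring inhibition of NCI-H1648 cell growth, from the Sanger screening data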
Description: SANGER: Inhibition of human NCI-H1648 cell growth in a cell viability assay.

PSN1 = format: functional, cell-based, Homo sapiens; details: psn1;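 note: suppression of growth of human PSN1 cells, read out by a cell viability assay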
Description: SANGER: Inhibition of human PSN1 cell growth in a cell viability assay.

NB7 = format: functional, cell-based; details: Homo sapiens;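 note: growth inhibition of NB7 cells, read out with a cell viability assay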
Description: SANGER: Inhibition of human NB7 cell growth in a cell viability assay.

HCC1187 = format: functional, cell-based, Homo sapiens;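 note: growth inhibition of HCC1187 cells, read out with a cell viability assay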
Description: SANGER: Inhibition of human HCC1187 cell growth in a cell viability assay.

TE-9 = format: functional, cell-based, Homo sapiens; details: te-9;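 note: cell growth inhibition, measured with a cell viability readout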
Description: SANGER: Inhibition of human TE-9 cell growth in a cell viability assay.

SAOS-2 = format: functional, cell-based, Homo sapiens;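 note: growth inhibition of human Saos-2 cells determined by a cell viability assay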
Description: SANGER: Inhibition of human Saos-2 cell growth in a cell viability assay.

A 172 = format: functional, cell-based, Homo sapiens; details: a 172;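 note: growth inhibition of A172 cells, measured with a cell viability readout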
Description: SANGER: Inhibition of human A172 cell growth in a cell viability assay.

MZ7-mel = format: functional, cell-based, Homo sapiens;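 note: growth inhibition of human MZ7-mel cells, measured by a cell viability assay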
Description: SANGER: Inhibition of human MZ7-mel cell growth in a cell viability assay.

NCI-H810 = format: functional, cell-based, Homo sapiens;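 note: IC50 reflects inhibition of cancer cell line growth, read out with a cell viability assay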
Description: SANGER: Inhibition of human NCI-H810 cell growth in a cell viability assay.

HH = format: functional, cell-based; details: Homo sapiens
Description: SANGER: Inhibition of human HH cell growth in a cell viability assay.

EFO-27 = format: functional, cell-based, Homo sapiens;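 note: growth inhibition of EFO-27 cells, read out with a cell viability assay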
Description: SANGER: Inhibition of human EFO-27 cell growth in a cell viability assay.

DB = format: functional, cell-based; details: Homo sapiens
Description: SANGER: Inhibition of human DB cell growth in a cell viability assay.

NCI-H2342 = format: functional, cell-based; details: Homo sapiens;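 note: growth inhibition of the cancer cell line, determined with a cell viability assay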
Description: SANGER: Inhibition of human NCI-H2342 cell growth in a cell viability assay.

OCI-AML2 = format: functional, cell-based; details: Homo sapiens;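 note: growth inhibition of OCI-AML2 cells, read out with a cell viability assay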
Description: SANGER: Inhibition of human OCI-AML2 cell growth in a cell viability assay.

FaDu = format: functional, cell-based, Homo sapiens;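 note: cell viability readout of growth inhibition in FaDu cells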
Description: SANGER: Inhibition of human FADU cell growth in a cell viability assay.

TE-5 = format: functional, cell-based, Homo sapiens;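 note: inhibition of cell growth, read out by a cell viability assay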
Description: SANGER: Inhibition of human TE-5 cell growth in a cell viability assay.

NB17 = format: functional, cell-based; details: Homo sapiens;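 note: growth inhibition of NB17 cells, read out with a cell viability assay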
Description: SANGER: Inhibition of human NB17 cell growth in a cell viability assay.

LS-513 = format: functional, cell-based, Homo sapiens
Description: SANGER: Inhibition of human LS-513 cell growth in a cell viability assay.

EW-11 = format: functional, cell-based, Homo sapiens; details: ew-11;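 note: growth inhibition of human EW-11 cells, measured with a cell viability assay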
Description: SANGER: Inhibition of human EW-11 cell growth in a cell viability assay.

UACC-62 = format: functional, cell-based, Homo sapiens; details: uacc-62;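 note: growth inhibition of human UACC-62 cells, read out by a cell viability assay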
Description: SANGER: Inhibition of human UACC-62 cell growth in a cell viability assay.

ASPC1 = format: functional, cell-based, Homo sapiens; details: aspc1;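 note: growth inhibition of AsPC-1 cells, read out with a cell viability assay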
Description: SANGER: Inhibition of human AsPC-1 cell growth in a cell viability assay.

MEL-HO = format: functional, cell-based, Homo sapiens; details: mel-ho
Description: SANGER: Inhibition of human MEL-HO cell growth in a cell viability assay.

JVM-3 = format: functional, cell-based; details: Homo sapiens;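 note: growth inhibition of human JVM-3 cells, read out with a cell viability assay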
Description: SANGER: Inhibition of human JVM-3 cell growth in a cell viability assay.

SNU-387 = format: functional, cell-based, Homo sapiens; details: snu-387
Description: SANGER: Inhibition of human SNU-387 cell growth in a cell viability assay.

DU-145 = format: functional, cell-based, Homo sapiens; details: du-145
Description: SANGER: Inhibition of human DU-145 cell growth in a cell viability assay.

COLO-800 = format: functional, cell-based, Homo sapiens; details: colo-800;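 note: growth inhibition of COLO-800 cells, read out with a cell viability assay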
Description: SANGER: Inhibition of human COLO-800 cell growth in a cell viability assay.

BB30-HNC = format: functional, cell-based, Homo sapiens;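 note: growth inhibition of the cultured cell line, read out by a cell viability assay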
Description: SANGER: Inhibition of human BB30-HNC cell growth in a cell viability assay.

K562 = format: functional, cell-based; details: Homo sapiens
Description: SANGER: Inhibition of human K-562 cell growth in a cell viability assay.

ATN-1 = format: functional, cell-based; details: Homo sapiens;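 note: growth inhibition of human ATN-1 cells, read out with a cell viability assay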
Description: SANGER: Inhibition of human ATN-1 cell growth in a cell viability assay.

UMUC3 = format: functional, cell-based, Homo sapiens; details: umuc3;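 note: growth inhibition of human UM-UC-3 cells, read out with a cell viability assay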
Description: SANGER: Inhibition of human UM-UC-3 cell growth in a cell viability assay.

NCI-H1651 = format: functional, cell-based, Homo sapiens;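 note: Read-out is a cell viability assay, with IC50 expressing inhibition of NCI-H1651 cell growth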
Description: SANGER: Inhibition of human NCI-H1651 cell growth in a cell viability assay.

HuO-3N1 = format: functional, cell-based, Homo sapiens;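 note: cell viability readout used to measure how strongly compounds suppress proliferation of human HuO-3N1 cells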
Description: SANGER: Inhibition of human HuO-3N1 cell growth in a cell viability assay.

KY821 = format: functional, cell-based; details: Homo sapiens;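 note: growth inhibition of human KY821 cells, read out by a cell viability assay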
Description: SANGER: Inhibition of human KY821 cell growth in a cell viability assay.

L-428 = format: functional, cell-based; details: Homo sapiens
Description: SANGER: Inhibition of human L-428 cell growth in a cell viability assay.

OVCAR-8 = format: functional, cell-based, Homo sapiens; details: ovcar-8;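 note: growth inhibition of human OVCAR-8 cells, read out by a cell viability assay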
Description: SANGER: Inhibition of human OVCAR-8 cell growth in a cell viability assay.

Compound: Cc1cc([C@@H](C)Nc2ccccc2C(=O)O)c2nc(N3CCOCC3)cc(=O)n2c1 [AZD-6482]
- IC50 (NOMO-1): 3.32 µM
- IC50 (COLO-824): > 5.12 µM
- IC50 (NCI-H1993): > 5.12 µM
- IC50 (ES5): > 5.12 µM
- IC50 (MHH-PREB-1): > 5.12 µM
- IC50 (DJM-1): > 5.12 µM
- IC50 (NY; Homo sapiens, NY): > 5.12 µM
- IC50 (NY; ny): > 5.12 µM
- IC50 (CAL-72; Homo sapiens, CAL-72): > 5.12 µM
- IC50 (CAL-72; cal-72): > 5.12 µM
- IC50 (RPMI-2650; Homo sapiens, RPMI-2650): > 5.12 µM
- IC50 (RPMI-2650; rpmi-2650): > 5.12 µM
- IC50 (KYSE-450): > 5.12 µM
- IC50 (RVH-421): > 5.12 µM
- IC50 (TK-10): > 5.12 µM
- IC50 (LNCaP-Clone-FGC; Homo sapiens, LNCaP-Clone-FGC): 1.52 µM
- IC50 (LNCaP-Clone-FGC; lncap-clone-fgc): 2.41 µM
- IC50 (UACC-257; Homo sapiens, UACC-257): > 5.12 µM
- IC50 (UACC-257; uacc-257): > 5.12 µM
- IC50 (LS-411N; Homo sapiens, LS-411N): > 5.12 µM
- IC50 (LS-411N; ls-411n): > 5.12 µM
- IC50 (HDLM-2): > 5.12 µM
- IC50 (NCI-H1770): > 5.12 µM
- IC50 (NCI-H1648; Homo sapiens, NCI-H1648): > 5.12 µM
- IC50 (NCI-H1648; nci-h1648): > 5.12 µM
- IC50 (PSN1): > 5.12 µM
- IC50 (NB7): > 5.12 µM
- IC50 (HCC1187; Homo sapiens, HCC1187): > 5.12 µM
- IC50 (HCC1187; hcc1187): > 5.12 µM
- IC50 (TE-9): > 5.12 µM
- IC50 (SAOS-2; Homo sapiens, SAOS-2): > 5.12 µM
- IC50 (SAOS-2; saos-2): > 5.12 µM
- IC50 (A 172): > 5.12 µM
- IC50 (MZ7-mel; Homo sapiens, MZ7-mel): > 5.12 µM
- IC50 (MZ7-mel; mz7-mel): > 5.12 µM
- IC50 (NCI-H810; Homo sapiens, NCI-H810): > 5.12 µM
- IC50 (NCI-H810; nci-h810): > 5.12 µM
- IC50 (HH): 0.962 µM
- IC50 (EFO-27; Homo sapiens, EFO-27): > 5.12 µM
- IC50 (EFO-27; efo-27): > 5.12 µM
- IC50 (DB): > 5.12 µM
- IC50 (NCI-H2342): 0.843 µM
- IC50 (OCI-AML2): > 5.12 µM
- IC50 (FaDu; Homo sapiens, FaDu): > 5.12 µM
- IC50 (FaDu; fadu): > 5.12 µM
- IC50 (TE-5; Homo sapiens, TE-5): > 5.12 µM
- IC50 (TE-5; te-5): > 5.12 µM
- IC50 (NB17): > 5.12 µM
- IC50 (LS-513; Homo sapiens, LS-513): > 5.12 µM
- IC50 (LS-513; ls-513): > 5.12 µM
- IC50 (EW-11): > 5.12 µM
- IC50 (UACC-62): > 5.12 µM and 2.03 µM
- IC50 (ASPC1): > 5.12 µM
- IC50 (MEL-HO): 1.24 µM and > 5.12 µM
- IC50 (JVM-3): > 5.12 µM
- IC50 (SNU-387): > 5.12 µM
- IC50 (DU-145): > 5.12 µM and 1.37 µM
- IC50 (COLO-800): > 5.12 µM
- IC50 (BB30-HNC; Homo sapiens, BB30-HNC): 4.89 µM
- IC50 (BB30-HNC; bb30-hnc): > 5.12 µM
- IC50 (K562): > 5.12 µM
- IC50 (ATN-1): > 5.12 µM
- IC50 (UMUC3): > 5.12 µM
- IC50 (NCI-H1651; Homo sapiens, NCI-H1651): > 5.12 µM
- IC50 (NCI-H1651; nci-h1651): > 5.12 µM
- IC50 (HuO-3N1; Homo sapiens, HuO-3N1): > 5.12 µM
- IC50 (HuO-3N1; huo-3n1): > 5.12 µM
- IC50 (KY821): > 5.12 µM
- IC50 (L-428): > 5.12 µM
- IC50 (OVCAR-8): > 5.12 µM
